Legend:
[1] = target: T1, CETP (Homo sapiens, UniProt P11597); assay: Assay of CETP Inhibition in Human Plasma; assay type: biochemical; set-up: Blood was obtained from healthy volunteers, recruited from the personnel of Monsanto Company; from tissue; host or cells: human EDTA plasma pool from healthy volunteers; conditions: transfer of [3H]CE from HDL to VLDL and LDL
T1 sequence (P11597 18-493): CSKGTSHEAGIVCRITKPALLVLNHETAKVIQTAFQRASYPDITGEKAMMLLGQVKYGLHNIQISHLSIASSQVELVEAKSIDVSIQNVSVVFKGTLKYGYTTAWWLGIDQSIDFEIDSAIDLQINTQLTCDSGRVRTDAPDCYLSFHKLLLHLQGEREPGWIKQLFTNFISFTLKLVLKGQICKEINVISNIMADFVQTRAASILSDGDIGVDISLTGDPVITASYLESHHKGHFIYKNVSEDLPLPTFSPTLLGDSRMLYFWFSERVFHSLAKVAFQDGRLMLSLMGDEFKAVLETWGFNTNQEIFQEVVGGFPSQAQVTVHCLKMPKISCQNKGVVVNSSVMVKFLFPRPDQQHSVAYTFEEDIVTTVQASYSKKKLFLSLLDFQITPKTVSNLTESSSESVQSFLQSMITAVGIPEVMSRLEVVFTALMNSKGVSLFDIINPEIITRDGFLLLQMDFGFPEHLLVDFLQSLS
Method in brief: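 In human EDTA plasma with [3H]CE-HDL, compounds in 1% DMSO (4 μL in 396 μL) were incubated 4 h at 37° C. IC50 was taken from % control versus concentration.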

[2] = target: T1, CETP; assay: Assay of CETP Inhibition using Purified Components (Reconstituted Buffer Assay); assay type: biochemical; set-up: made in house; host or cells: CHO cells (serum-free conditioned medium); conditions: transfer of [3H]CE from HDL to LDL
Method in brief: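 Purified human recombinant CETP from transfected CHO cells was incubated with [^3H]CE-labeled HDL donor and LDL acceptor in Tris pH 7.4/NaCl/EDTA/1% BSA buffer for 2 h at 37 °C. LDL was then precipitated with dextran sulfate/MgCl2, filtered, and counted by liquid scintillation to give IC50 for CE transfer.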

[3] = Inhibition of CETP activity in human plasma assay, read-out: IC50
[4] = Inhibition of CETP activity in reconstituted buffer assay, read-out: IC50

IC50 [1, 3]	IC50 [2, 4]	Structure (SMILES)	IC50 ([1]; IC50, Inhibition of CETP activity in human plasma assay)	IC50 ([2]; IC50, Inhibition of CETP activity in reconstituted buffer assay)
120 µM	4 µM	OC(CN(Cc1cccc(OC(F)(F)F)c1)c1cccc(-c2ccccc2)c1)C(F)(F)F (stereo not shown) [Example 66]		
34 µM	0.83 µM	COC(=O)C=CCOc1cccc(N(Cc2cccc(OC(F)(F)C(F)F)c2)CC(O)C(F)(F)F)c1 (stereo not shown) [Example 499]		
> 100 µM	2.5 µM	OC(CN(Cc1cccc(C(F)(F)F)c1)c1cccc(OC(F)(F)F)c1)C(F)(F)F (stereo not shown) [Example 688]		
> 100 µM	15 µM	COc1ccc(CN(CC(O)C(F)(F)F)c2cccc(Oc3ccccc3)c2)cc1 (stereo not shown) [Example 686]		
37 µM	0.64 µM	O=[N+]([O-])c1ccc(Sc2cccc(N(Cc3cccc(OC(F)(F)C(F)F)c3)CC(O)C(F)(F)F)c2)cc1 (stereo not shown) [Example 475]		
> 100 µM	2.6 µM	OC(CN(Cc1cccc(OC(F)(F)C(F)F)c1)c1cccc(NCc2cccc(C(F)(F)F)c2)c1)C(F)(F)F (stereo not shown) [Example 311]		
38 µM	0.59 µM	COc1ccc(Nc2cccc(N(Cc3cccc(OC(F)(F)C(F)F)c3)CC(O)C(F)(F)F)c2)cc1 (stereo not shown) [Example 292, 3-[[3-[(4-methoxyphenyl)amino]phenyl]-[[3-(1,1,2,2-tetrafluoro-ethoxy)phenyl]methyl]amino]-1,1,1-trifluoro-2-propanol]		
49 µM	0.92 µM	O=[N+]([O-])c1cccc(-c2cccc(N(Cc3cccc(OC(F)(F)C(F)F)c3)CC(O)C(F)(F)F)c2)c1 (stereo not shown) [Example 556]		
		OC(CN(Cc1ccc(OC(F)(F)F)cc1)c1cccc(Oc2ccccc2)c1)C(F)(F)F (stereo not shown) [Example 63]	120 µM	3.5 µM
> 100 µM	4.5 µM	OC(CN(Cc1cccc(Br)c1)c1cccc(Oc2ccccc2)c1)C(F)(F)F (stereo not shown) [Example 595B, 3-[(3-phenoxyphenyl)[[3-bromophenyl]methyl]amino]-1,1,1-trifluoro-2-propanol]		
18 µM	0.75 µM	OC(CN(Cc1cccc(OC(F)(F)C(F)F)c1)c1cccc(-c2ccc(F)c(Cl)c2)c1)C(F)(F)F (stereo not shown) [Example 554]		
8 µM	0.56 µM	OC(CN(Cc1cccc(OC(F)(F)C(F)F)c1)c1cccc(-c2ccc(F)c(F)c2)c1)C(F)(F)F (stereo not shown) [Example 559]		

Structure (SMILES)	IC50 [1, 3]	IC50 [2, 4]	IC50 ([1]; IC50, Inhibition of CETP activity in human plasma assay)	IC50 ([2]; IC50, Inhibition of CETP activity in reconstituted buffer assay)
Cc1cc(Oc2cccc(N(Cc3cccc(OC(F)(F)C(F)F)c3)CC(O)C(F)(F)F)c2)cc(C)c1C (stereo not shown) [Example 247]	17 µM	0.37 µM		
OC(CN(Cc1cccc(OC(F)(F)C(F)F)c1)c1cccc(Oc2ccc(Br)cc2)c1)C(F)(F)F (stereo not shown) [Example 269]	22 µM	0.59 µM		

Source: patent US6723753B2, “Substituted n-benzyl-n-phenyl aminoalcohol compounds useful for inhibiting cholesteryl ester transfer protein activity” (Pharmacia Corporation, priority 2002, dated 2004)
